Test results from patent publication US9493435B2, “IRE-1α inhibitors” (MannKing Corporation, priority 2009, dated 2016).

Target: human IRE-1α (GST-IRE-1α) (Homo sapiens (Human), UniProt O75460)
Experiment: IRE-1α assay (cleavage of mini-XBP-1 mRNA stem-loop substrate)
Assay type: biochemical
Conditions: average IC50 for inhibition of IRE-1α in vitro
Protocol: A fusion protein comprising glutathione S transferase (GST) and human IRE-1α (GST-IRE-1α) obtained from a 500 ml baculovirus-infected insect cell culture can be used to measure IRE-1α activity in vitro. Five μl of a reaction mixture comprising 1× reaction buffer (5× reaction buffer is 100 mM Hepes pH 7.5, 250 mM KOAc, 2.5 mM MgCl2), 3 mM DTT, and 0.4% polyethylene glycol water is added to each well of 384 well plates. Twenty-five nanoliters of a 1 mM test compound solution are added to test wells. […] Negative control wells contain only reaction mixture and test compound. After spinning the plates at 1200 rpm for 30 seconds, 3 μl of an IRE-1α human mini-XBP-1 mRNA stem-loop substrate [NT] ID NO:1), labeled with the fluorescent dye Cy5 at the [NT] end, are added to each well of a control plate. The plates are again spun at 1200 rpm for 30 seconds. […] The plates are covered with lids and incubated for one hour at 30° C. The plates are then transferred to an […] microplate reader. Data is analyzed using data analysis software, and the percent activity of IRE-1α is calculated.

Chain of human IRE-1α (GST-IRE-1α) (O75460 19-977): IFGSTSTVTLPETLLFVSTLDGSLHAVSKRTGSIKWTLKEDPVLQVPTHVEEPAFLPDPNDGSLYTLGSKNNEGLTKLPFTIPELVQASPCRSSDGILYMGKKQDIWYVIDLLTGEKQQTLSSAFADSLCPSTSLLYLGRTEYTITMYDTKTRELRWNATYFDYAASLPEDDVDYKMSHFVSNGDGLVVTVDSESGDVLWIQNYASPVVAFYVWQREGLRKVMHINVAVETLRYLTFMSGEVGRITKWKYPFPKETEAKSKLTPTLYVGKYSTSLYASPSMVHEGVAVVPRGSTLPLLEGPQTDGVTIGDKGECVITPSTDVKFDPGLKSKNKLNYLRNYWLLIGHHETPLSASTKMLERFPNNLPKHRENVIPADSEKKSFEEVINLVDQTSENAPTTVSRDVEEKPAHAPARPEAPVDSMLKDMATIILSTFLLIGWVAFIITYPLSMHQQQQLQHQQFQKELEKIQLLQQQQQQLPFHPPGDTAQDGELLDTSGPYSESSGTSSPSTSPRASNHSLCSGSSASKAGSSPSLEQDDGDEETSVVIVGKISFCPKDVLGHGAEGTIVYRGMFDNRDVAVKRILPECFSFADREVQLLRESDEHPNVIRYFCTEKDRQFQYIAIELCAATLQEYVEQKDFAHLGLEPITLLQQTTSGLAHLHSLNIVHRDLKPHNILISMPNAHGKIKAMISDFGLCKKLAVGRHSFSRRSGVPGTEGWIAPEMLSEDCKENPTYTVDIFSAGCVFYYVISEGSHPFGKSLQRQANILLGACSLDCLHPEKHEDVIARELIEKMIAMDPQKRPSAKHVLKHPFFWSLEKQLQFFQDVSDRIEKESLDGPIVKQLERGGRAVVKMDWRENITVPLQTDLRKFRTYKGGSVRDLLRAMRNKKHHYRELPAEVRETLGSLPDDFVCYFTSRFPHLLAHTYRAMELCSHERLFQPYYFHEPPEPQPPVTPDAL

Which IC50 does the source give for `CN1CCN(C(=O)C2CCN(c3ccc4c(C=O)c(O)ccc4c3)CC2)CC1` [Compound 91] here?
Its IC50 is over 1 µM.

How did the IC50 turn out when `O=Cc1c(O)ccc2cc(N3CCC(NCc4ccccn4)CC3)ccc12` [Compound 114] was run?
Its IC50 is under 1 µM.

For `CN1CCN(C(=O)c2ccc(-c3ccc4c(C=O)c(O)ccc4c3)nc2)CC1` [Compound 57], which IC50 is on record?
The IC50 was under 1 µM.

Which IC50 does the source give for `Cc1nc(-c2ccc3c(C=O)c(O)ccc3c2)sc1C(=O)NC1CCN(C)CC1` [Compound 145] here?
Its IC50 is under 1 µM.

`CN1CCN(C(=O)c2csc(-c3ccc4c(C=O)c(O)ccc4c3)n2)CC1` [Compound 60] was tested. Which IC50 did it give?
Its IC50 is under 0.1 µM.

Which IC50 does the source give for `CS(=O)(=O)NC1CCN(c2ccc3c(C=O)c(O)ccc3c2)CC1` [Compound 93] here?
The IC50 was over 1 µM.

For `O=Cc1c(O)ccc2cc(N3CCC(N4CCOCC4)CC3)ccc12` [Compound 82], which IC50 is on record?
Its IC50 is under 1 µM.

For `CN(C)C(=O)C1CCN(c2ccc3c(C=O)c(O)ccc3c2)C1` (stereo not drawn) [Compound 128], which IC50 is on record?
The IC50 was over 1 µM.

How did the IC50 turn out when `CC(C)N1CCN(c2ccc3c(C=O)c(O)ccc3c2)CC1` [Compound 99] was run?
The IC50 was over 1 µM.

Which IC50 does the source give for `CN(Cc1ccncc1)C(=O)C1CCN(c2ccc3ccc(O)c(C=O)c3c2)C1` (stereo not drawn) [Compound 148] here?
The IC50 was over 1 µM.

With `CN(C)C(=O)/C=C/c1ccc2c(C=O)c(O)ccc2c1` [Compound 31] as the molecule, how does the IC50 read?
Its IC50 is under 0.1 µM.

How did the IC50 turn out when `CN(C)C1CCN(c2ccc3c(C=O)c(O)ccc3c2)C1` (stereo not drawn) [Compound 106] was run?
Its IC50 is over 1 µM.

Which IC50 does the source give for `O=Cc1c(O)ccc2cc(-c3ccc(C(=O)NC4CCCNC4)s3)ccc12` (stereo not drawn) [Compound 47] here?
Its IC50 is under 0.1 µM.

Which IC50 does the source give for `CN(C)C(=O)CCc1ccc2c(C=O)c(O)ccc2c1` [Compound 51] here?
The IC50 was under 1 µM.

How did the IC50 turn out when `CN1CCCC(CNC(=O)c2ccc(-c3ccc4c(C=O)c(O)ccc4c3)s2)C1` (stereo not drawn) [Compound 69] was run?
The IC50 was under 0.1 µM.

`CN(Cc1ccncc1)C1CCN(c2ccc3ccc(O)c(C=O)c3c2)C1` (stereo not drawn) [Compound 155] was tested. Which IC50 did it give?
The IC50 was over 1 µM.

For `CC(=O)N(C)C1CCN(c2ccc3ccc(O)c(C=O)c3c2)C1` (stereo not drawn) [Compound 157], which IC50 is on record?
The IC50 was over 1 µM.

`O=Cc1c(O)ccc2ccc(N3CCCC3)cc12` [Compound 104] was tested. Which IC50 did it give?
The IC50 was over 1 µM.

`CCOC(=O)CCc1ccc2c(C=O)c(O)ccc2c1` [Compound 40] was tested. Which IC50 did it give?
Its IC50 is over 1 µM.

For `O=Cc1c(O)ccc2ccc(N3CCC(N4CCOCC4)CC3)cc12` [Compound 90], which IC50 is on record?
Its IC50 is over 1 µM.

With `CN1CCN(c2ncc(-c3ccc4c(C=O)c(O)ccc4c3)s2)CC1` [Compound 121] as the molecule, how does the IC50 read?
Its IC50 is under 0.1 µM.

`O=Cc1c(O)ccc2cc(-c3ccc(C(=O)NC4CCNCC4)s3)ccc12` [Compound 46] was tested. Which IC50 did it give?
The IC50 was under 0.1 µM.

For `CSc1ncc(-c2ccc3c(C=O)c(O)ccc3c2)cn1` [Compound 64], which IC50 is on record?
Its IC50 is over 1 µM.

How did the IC50 turn out when `CN1CCN(C2CCN(c3ccc4c(C=O)c(O)ccc4c3)CC2)CC1` [Compound 86] was run?
Its IC50 is under 0.01 µM.

Which IC50 does the source give for `O=Cc1c(O)ccc2cc(-c3ccc(C(=O)NC4CCCNC4)o3)ccc12` (stereo not drawn) [Compound 171] here?
Its IC50 is under 0.1 µM.

With `O=Cc1c(O)ccc2cc(N3CCC(N4CCCCC4)C3)ccc12` (stereo not drawn) [Compound 117] as the molecule, how does the IC50 read?
The IC50 was under 1 µM.

Which IC50 does the source give for `O=Cc1c(O)ccc2cc(N3CCC(N4CCOCC4)C3)ccc12` (stereo not drawn) [Compound 107] here?
The IC50 was over 1 µM.

For `O=Cc1c(O)ccc2cc(-c3ccc(C(=O)NC4CCNCC4)nc3)ccc12` [Compound 151], which IC50 is on record?
Its IC50 is under 1 µM.

With `CN(C)C(=O)c1ccc(-c2ccc3c(C=O)c(O)ccc3c2)c(Cl)c1` [Compound 28] as the molecule, how does the IC50 read?
Its IC50 is over 1 µM.

How did the IC50 turn out when `O=Cc1c(O)ccc2cc(N3CCC(NCc4ccccc4)C3)ccc12` (stereo not drawn) [Compound 153] was run?
The IC50 was over 1 µM.

Test system: IRE-1α-mediated XBP-1 splicing in human myeloma MM.1s cells
Experiment: Cellular XBP-1 splicing assay in myeloma cells (RT-PCR)
Assay type: cell-based
Conditions: Homo sapiens, MM1.S; average EC50, endogenous XBP-1 splicing in myeloma cells, DTT stress
Protocol: After an additional 45 minutes (2 hours total) with compound and DTT, the cells are harvested with TRIZOL® (a mono-phasic solution of phenol and guanidine isothiocyanate), and total RNA is prepared as directed by the manufacturer (Invitrogen). Human XBP-1 is amplified by RT-PCR with the following primers, which flank the 26 base unconventional intron excised by IRE-1α:
RT-PCR of unstressed (U) cells then generates the upper band. When cells are stressed (S) with the endoplasmic reticulum (ER) stressing agent DTT, IRE-1α is activated due to accumulating unfolded protein and the resulting RT-PCR product is 26 base pairs shorter.
Compounds which pass specificity assays are assayed for cellular EC50 using endogenous XBP-1 splicing in myeloma cells. XBP-1 is regulated through the excision of a 26 nucleotide intron from the XBP-1 mRNA by the highly specific endoribonuclease activity of IRE-1α. […] This splicing event is used to measure IRE-1α activity on XBP-1 mRNA in cells and tissues.
Briefly, compounds are incubated in the presence or absence of an ER stress agent (e.g., DTT), and the ratio of XBP-1u (unspliced) to XBP-1s (spliced) is quantified by RT-PCR.

For `CN1CCN(C(=O)C2CCN(c3ccc4c(C=O)c(O)ccc4c3)CC2)CC1` [Compound 91], which EC50 is on record?
Its EC50 is over 10 µM.

`O=Cc1c(O)ccc2cc(N3CCC(NCc4ccccn4)CC3)ccc12` [Compound 114] was tested. Which EC50 did it give?
The EC50 was over 10 µM.

With `CN1CCN(C(=O)c2ccc(-c3ccc4c(C=O)c(O)ccc4c3)nc2)CC1` [Compound 57] as the molecule, how does the EC50 read?
Its EC50 is under 10 µM.

With `Cc1nc(-c2ccc3c(C=O)c(O)ccc3c2)sc1C(=O)NC1CCN(C)CC1` [Compound 145] as the molecule, how does the EC50 read?
Its EC50 is under 10 µM.

How did the EC50 turn out when `CN1CCN(C(=O)c2csc(-c3ccc4c(C=O)c(O)ccc4c3)n2)CC1` [Compound 60] was run?
Its EC50 is under 10 µM.

With `CS(=O)(=O)NC1CCN(c2ccc3c(C=O)c(O)ccc3c2)CC1` [Compound 93] as the molecule, how does the EC50 read?
The EC50 was under 10 µM.

For `O=Cc1c(O)ccc2cc(N3CCC(N4CCOCC4)CC3)ccc12` [Compound 82], which EC50 is on record?
Its EC50 is under 10 µM.

For `CN(C)C(=O)C1CCN(c2ccc3c(C=O)c(O)ccc3c2)C1` (stereo not drawn) [Compound 128], which EC50 is on record?
Its EC50 is over 10 µM.

Which EC50 does the source give for `CC(C)N1CCN(c2ccc3c(C=O)c(O)ccc3c2)CC1` [Compound 99] here?
Its EC50 is under 10 µM.

For `CN(Cc1ccncc1)C(=O)C1CCN(c2ccc3ccc(O)c(C=O)c3c2)C1` (stereo not drawn) [Compound 148], which EC50 is on record?
The EC50 was over 10 µM.

How did the EC50 turn out when `CN(C)C(=O)/C=C/c1ccc2c(C=O)c(O)ccc2c1` [Compound 31] was run?
Its EC50 is over 10 µM.

How did the EC50 turn out when `CN(C)C1CCN(c2ccc3c(C=O)c(O)ccc3c2)C1` (stereo not drawn) [Compound 106] was run?
Its EC50 is over 10 µM.

With `O=Cc1c(O)ccc2cc(-c3ccc(C(=O)NC4CCCNC4)s3)ccc12` (stereo not drawn) [Compound 47] as the molecule, how does the EC50 read?
The EC50 was under 10 µM.

`CN(C)C(=O)CCc1ccc2c(C=O)c(O)ccc2c1` [Compound 51] was tested. Which EC50 did it give?
Its EC50 is under 10 µM.

`CN1CCCC(CNC(=O)c2ccc(-c3ccc4c(C=O)c(O)ccc4c3)s2)C1` (stereo not drawn) [Compound 69] was tested. Which EC50 did it give?
Its EC50 is under 10 µM.

For `CN(Cc1ccncc1)C1CCN(c2ccc3ccc(O)c(C=O)c3c2)C1` (stereo not drawn) [Compound 155], which EC50 is on record?
The EC50 was over 10 µM.

How did the EC50 turn out when `CC(=O)N(C)C1CCN(c2ccc3ccc(O)c(C=O)c3c2)C1` (stereo not drawn) [Compound 157] was run?
Its EC50 is over 10 µM.

How did the EC50 turn out when `O=Cc1c(O)ccc2ccc(N3CCCC3)cc12` [Compound 104] was run?
Its EC50 is over 10 µM.

How did the EC50 turn out when `CCOC(=O)CCc1ccc2c(C=O)c(O)ccc2c1` [Compound 40] was run?
Its EC50 is over 10 µM.

Which EC50 does the source give for `O=Cc1c(O)ccc2ccc(N3CCC(N4CCOCC4)CC3)cc12` [Compound 90] here?
The EC50 was under 10 µM.

Which EC50 does the source give for `CN1CCN(c2ncc(-c3ccc4c(C=O)c(O)ccc4c3)s2)CC1` [Compound 121] here?
Its EC50 is under 10 µM.

Which EC50 does the source give for `O=Cc1c(O)ccc2cc(-c3ccc(C(=O)NC4CCNCC4)s3)ccc12` [Compound 46] here?
Its EC50 is under 10 µM.

Which EC50 does the source give for `CSc1ncc(-c2ccc3c(C=O)c(O)ccc3c2)cn1` [Compound 64] here?
Its EC50 is over 10 µM.

For `CN1CCN(C2CCN(c3ccc4c(C=O)c(O)ccc4c3)CC2)CC1` [Compound 86], which EC50 is on record?
Its EC50 is under 10 µM.

Which EC50 does the source give for `O=Cc1c(O)ccc2cc(-c3ccc(C(=O)NC4CCCNC4)o3)ccc12` (stereo not drawn) [Compound 171] here?
Its EC50 is under 10 µM.

For `O=Cc1c(O)ccc2cc(N3CCC(N4CCCCC4)C3)ccc12` (stereo not drawn) [Compound 117], which EC50 is on record?
Its EC50 is under 10 µM.

How did the EC50 turn out when `O=Cc1c(O)ccc2cc(N3CCC(N4CCOCC4)C3)ccc12` (stereo not drawn) [Compound 107] was run?
Its EC50 is over 10 µM.

With `O=Cc1c(O)ccc2cc(-c3ccc(C(=O)NC4CCNCC4)nc3)ccc12` [Compound 151] as the molecule, how does the EC50 read?
The EC50 was under 10 µM.

Which EC50 does the source give for `CN(C)C(=O)c1ccc(-c2ccc3c(C=O)c(O)ccc3c2)c(Cl)c1` [Compound 28] here?
The EC50 was over 10 µM.

Which EC50 does the source give for `O=Cc1c(O)ccc2cc(N3CCC(NCc4ccccc4)C3)ccc12` (stereo not drawn) [Compound 153] here?
The EC50 was over 10 µM.
